Assay results published in patent publication US6503899B2, “Azepino[4,5-b]pyrano[3,2-e]indoles” (Pharmacia & Upjohn Company, priority 2000, dated 2003).

| melting point | SMILES |
| --- | --- |
| > 217 °C (dec.) | Cl.Cn1c2c(c3c4c(ccc31)OCCC4)CCNCC2 |
| > 258 °C (dec.) | CC1(C)CCc2c(ccc3[nH]c4c(c23)CCNCC4)O1.Cl |
